Results: patent US9974304B2, “Use of macrocyclic picolinamides as fungicides” (DOW AGROSCIENCES LLC, priority 2013, dated 2018)

Row | melting point [°C] | Structure (SMILES)
1 | 66 to 70 | COc1ccnc(C(=O)N[C@H]2COC[C@H](Oc3ccccc3)[C@@H](CCC(C)C)[C@H](C)OC2=O)c1OC(C)=O [Compound 47]
2 | 75 to 81 | COc1ccnc(C(=O)N[C@H]2COC[C@H](Oc3ccccc3)[C@@H](Cc3ccccc3)[C@H](C)OC2=O)c1OC(C)=O [Compound 81]
